Measured values from patent publication US20220169628A1 (University of Florida Research Foundation, Incorporated, priority 2019, published 2022).

Legend:
[1] = test system: MOLT-4 cells; test: Cell viability assay, MTS, 72 h, MOLT-4; assay type: cell-based; conditions: Homo sapiens; MOLT-4 cells, 72 h, MTS
Experimental: (§1) Cancer cells from different tissue origins including acute lymphoblastic leukemia (MOLT4 and RS4; 11), small cell lung cancer (NCI-H146 or simply H146), and multiple myeloma (EJM and H929) were incubated with increasing concentrations of Examples 1-21 or ABT-263 for 72 h. Cell viability was measured by tetrazolium-based MTS assay. 5×10^4 to 1×10^5 suspension cells or 3×10^3 to 5×10^3 adherent cells were seeded and treated in 96-well plates for 72 h. The EC50 values of individual agents were calculated with GraphPad Prism.

[2] = test system: RS4 cells; test: Cell viability assay, MTS, 72 h, RS4;11; assay type: cell-based; conditions: Homo sapiens
Experimental: as §1

Row | Structure (SMILES) | IC50 [1] | IC50 [2]
1 | Cc1ncsc1-c1ccc([C@H](C)NC(=O)[C@@H]2C[C@@H](O)CN2C(=O)[C@@H](NC(=O)CCCCCCC(=O)NCC2(C)CCC(c3ccc(Cl)cc3)=C(CN3CCN(c4ccc(C(=O)NS(=O)(=O)c5ccc(N[C@H](CCN6CCOCC6)CSc6ccccc6)c(S(=O)(=O)C(F)(F)F)c5)cc4)CC3)C2)C(C)(C)C)cc1 (stereo partly drawn) [Compound 51, N^1-((4′-chloro-4-methyl-6-((4-(4-(((4-(((R)-4-morpholino-1-(phenylthio)butan-2-yl)amino)-3-((trifluoromethyl)sulfonyl)phenyl)sulfonyl)carbamoyl)phenyl)piperazin-1-yl)methyl)-2,3,4,5-tetrahydro-[1,1′-biphenyl]-4-yl)methyl)-N^8—((S)-1-((2S,4R)-4-hydroxy-2-(((S)-1-(4-(4-methylthiazol-5-yl)phenyl)ethyl)carbamoyl)pyrrolidin-1-yl)-3,3-dimethyl-1-oxobutan-2-yl)octanediamide] | 0.142 µM | 0.047 µM
2 | Cc1ncsc1-c1ccc([C@H](C)NC(=O)[C@@H]2C[C@@H](O)CN2C(=O)[C@@H](NC(=O)CCCCCCCC(=O)NCC2(C)CCC(c3ccc(Cl)cc3)=C(CN3CCN(c4ccc(C(=O)NS(=O)(=O)c5ccc(N[C@H](CCN6CCOCC6)CSc6ccccc6)c(S(=O)(=O)C(F)(F)F)c5)cc4)CC3)C2)C(C)(C)C)cc1 (stereo partly drawn) [Compound 52, N^1-((4′-chloro-4-methyl-6-((4-(4-(((4-(((R)-4-morpholino-1-(phenylthio)butan-2-yl)amino)-3-((trifluoromethyl)sulfonyl)phenyl)sulfonyl)carbamoyl)phenyl)piperazin-1-yl)methyl)-2,3,4,5-tetrahydro-[1,1′-biphenyl]-4-yl)methyl)-N^9—((S)-1-((2S,4R)-4-hydroxy-2-(((S)-1-(4-(4-methylthiazol-5-yl)phenyl)ethyl)carbamoyl)pyrrolidin-1-yl)-3,3-dimethyl-1-oxobutan-2-yl)nonanediamide] | 0.124 µM | 0.043 µM
3 | Cc1ncsc1-c1ccc([C@H](C)NC(=O)[C@@H]2C[C@@H](O)CN2C(=O)[C@@H](NC(=O)CCCCCCCCCC(=O)NCC2(C)CCC(c3ccc(Cl)cc3)=C(CN3CCN(c4ccc(C(=O)NS(=O)(=O)c5ccc(N[C@H](CCN6CCOCC6)CSc6ccccc6)c(S(=O)(=O)C(F)(F)F)c5)cc4)CC3)C2)C(C)(C)C)cc1 (stereo partly drawn) [Compound 54, N^1-((4′-chloro-4-methyl-6-((4-(4-(((4-(((R)-4-morpholino-1-(phenylthio)butan-2-yl)amino)-3-((trifluoromethyl)sulfonyl)phenyl)sulfonyl)carbamoyl)phenyl)piperazin-1-yl)methyl)-2,3,4,5-tetrahydro-[1,1′-biphenyl]-4-yl)methyl)-N^11—((S)-1-((2S,4R)-4-hydroxy-2-(((S)-1-(4-(4-methylthiazol-5-yl)phenyl)ethyl)carbamoyl)pyrrolidin-1-yl)-3,3-dimethyl-1-oxobutan-2-yl)undecanediamide] | 0.074 µM | 0.0194 µM
4 | Cc1ncsc1-c1ccc([C@H](C)NC(=O)[C@@H]2C[C@@H](O)CN2C(=O)[C@@H](NC(=O)CCCCCCCCCCC(=O)NCC2(C)CCC(c3ccc(Cl)cc3)=C(CN3CCN(c4ccc(C(=O)NS(=O)(=O)c5ccc(N[C@H](CCN6CCOCC6)CSc6ccccc6)c(S(=O)(=O)C(F)(F)F)c5)cc4)CC3)C2)C(C)(C)C)cc1 (stereo partly drawn) [Compound 55, N^1-((4′-chloro-4-methyl-6-((4-(4-(((4-(((R)-4-morpholino-1-(phenylthio)butan-2-yl)amino)-3-((trifluoromethyl)sulfonyl)phenyl)sulfonyl)carbamoyl)phenyl)piperazin-1-yl)methyl)-2,3,4,5-tetrahydro-[1,1′-biphenyl]-4-yl)methyl)-N^2—((S)-1-((2S,4R)-4-hydroxy-2-(((S)-1-(4-(4-methylthiazol-5-yl)phenyl)ethyl)carbamoyl)pyrrolidin-1-yl)-3,3-dimethyl-1-oxobutan-2-yl)dodecanediamide] | 0.111 µM | 0.096 µM

Continued, values first:

Row | IC50 [1] | IC50 [2] | Structure (SMILES)
5 | 0.333 µM | 0.41 µM | Cc1ncsc1-c1ccc([C@H](C)NC(=O)[C@@H]2C[C@@H](O)CN2C(=O)[C@@H](NC(=O)CCCCCCCCCCCC(=O)NCC2(C)CCC(c3ccc(Cl)cc3)=C(CN3CCN(c4ccc(C(=O)NS(=O)(=O)c5ccc(N[C@H](CCN6CCOCC6)CSc6ccccc6)c(S(=O)(=O)C(F)(F)F)c5)cc4)CC3)C2)C(C)(C)C)cc1 (stereo partly drawn) [Compound 56, N^1-((4′-chloro-4-methyl-6-((4-(4-(((4-(((R)-4-morpholino-1-(phenylthio)butan-2-yl)amino)-3-((trifluoromethyl)sulfonyl)phenyl)sulfonyl)carbamoyl)phenyl)piperazin-1-yl)methyl)-2,3,4,5-tetrahydro-[1,1′-biphenyl]-4-yl)methyl)-N^13—((S)-1-((2S,4R)-4-hydroxy-2-(((S)-1-(4-(4-methylthiazol-5-yl)phenyl)ethyl)carbamoyl)pyrrolidin-1-yl)-3,3-dimethyl-1-oxobutan-2-yl)tridecanediamide]
6 | 0.973 µM | 0.404 µM | Cc1ncsc1-c1ccc([C@H](C)NC(=O)[C@@H]2C[C@@H](O)CN2C(=O)[C@@H](NC(=O)COCCOCCOCCOCC(=O)NCC2(C)CCC(c3ccc(Cl)cc3)=C(CN3CCN(c4ccc(C(=O)NS(=O)(=O)c5ccc(N[C@H](CCN6CCOCC6)CSc6ccccc6)c(S(=O)(=O)C(F)(F)F)c5)cc4)CC3)C2)C(C)(C)C)cc1 (stereo partly drawn) [Compound 59, N^1-((4′-chloro-4-methyl-6-((4-(4-(((4-(((R)-4-morpholino-1-(phenylthio)butan-2-yl)amino)-3-((trifluoromethyl)sulfonyl)phenyl)sulfonyl)carbamoyl)phenyl)piperazin-1-yl)methyl)-2,3,4,5-tetrahydro-[1,1′-biphenyl]-4-yl)methyl)-N^14—((S)-1-((2S,4R)-4-hydroxy-2-(((S)-1-(4-(4-methylthiazol-5-yl)phenyl)ethyl)carbamoyl)pyrrolidin-1-yl)-3,3-dimethyl-1-oxobutan-2-yl)-3,6,9,12-tetraoxatetradecanediamide]
7 | 1.41 µM | 0.758 µM | Cc1ncsc1-c1ccc([C@H](C)NC(=O)[C@@H]2C[C@@H](O)CN2C(=O)[C@@H](NC(=O)COCCOCCOCCOCCOCC(=O)NCC2(C)CCC(c3ccc(Cl)cc3)=C(CN3CCN(c4ccc(C(=O)NS(=O)(=O)c5ccc(N[C@H](CCN6CCOCC6)CSc6ccccc6)c(S(=O)(=O)C(F)(F)F)c5)cc4)CC3)C2)C(C)(C)C)cc1 (stereo partly drawn) [Compound 60, N^1-((4′-chloro-4-methyl-6-((4-(4-(((4-(((R)-4-morpholino-1-(phenylthio)butan-2-yl)amino)-3-((trifluoromethyl)sulfonyl)phenyl)sulfonyl)carbamoyl)phenyl)piperazin-1-yl)methyl)-2,3,4,5-tetrahydro-[1,1′-biphenyl]-4-yl)methyl)-N^17—((S)-1-((2S,4R)-4-hydroxy-2-(((S)-1-(4-(4-methylthiazol-5-yl)phenyl)ethyl)carbamoyl)pyrrolidin-1-yl)-3,3-dimethyl-1-oxobutan-2-yl)-3,6,9,12,15-pentaoxaheptadecanediamide]
